The text below walks through data of PMC12678798, “Discovery of an allosteric binding site for anthraquinones at the human P2X4 receptor” (Nature Communications, 2025).

The assay addresses T1, human wt P2X4 receptor (Homo sapiens, UniProt Q99571).
T1 construct: expressed in transfected cells
T1 sequence (Q99571 1-388): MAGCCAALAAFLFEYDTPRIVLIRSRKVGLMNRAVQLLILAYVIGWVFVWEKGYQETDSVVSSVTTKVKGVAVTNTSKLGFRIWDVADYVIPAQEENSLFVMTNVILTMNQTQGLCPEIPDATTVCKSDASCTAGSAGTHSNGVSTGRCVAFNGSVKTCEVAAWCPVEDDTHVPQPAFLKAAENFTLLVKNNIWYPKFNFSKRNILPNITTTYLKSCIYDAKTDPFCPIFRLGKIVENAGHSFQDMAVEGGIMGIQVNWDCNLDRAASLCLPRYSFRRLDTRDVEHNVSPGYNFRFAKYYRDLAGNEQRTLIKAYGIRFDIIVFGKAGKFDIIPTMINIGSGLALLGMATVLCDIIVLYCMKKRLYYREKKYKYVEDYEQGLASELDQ
Kind of assay: ATP-induced calcium influx assay, human wt P2X4 receptor in 1321N1 astrocytoma cells. It counts as cell-based. The settings on record: wt hP2X4; calcium influx.

For the molecule `Nc1ncnc2c1ncn2[C@@H]1O[C@H](COP(=O)(O)OP(=O)(O)OP(=O)(O)O)[C@@H](O)[C@H]1O` [ATP, Adenosine 5′-triphosphate], the EC50 is 357 nM.
